# Measured values reported in patent US11999794B2, “Human mesothelin chimeric antigen receptors and uses thereof” (Novartis AG, priority 2013, dated 2024).
# Entries after “also recorded” stand apart in the source; their conditions may differ. Read-outs that look alike come from different tables or passages of the source. Marks after values point to notes of the source that are not given here.
# What was measured:
# [1] = test system: A/H3N2 strain A/Victoria/361/11; assay: HI titers and seroconversion, heterologous strain; format: in vivo, human; conditions: for Percentage of subjects who seroconvert to heterologous strain A/H3N2 A/Victoria/361/11: 4 weeks after seasonal influenza vaccination, odds ratio vs placebo p < 0.05
# [2] = test system: A/H1N1/California/07/2009; assay: Anti-influenza IgG and IgM levels in serum; format: in vivo, human; conditions: vs placebo cohorts
# Protocol: The trial was observer-blind because the placebo in the RAD001 0.5 mg daily and 20 mg weekly cohorts differed slightly from the RAD001 tablets in those cohorts. […] The treatment duration for all cohorts was 6 weeks during which time subjects underwent safety evaluations in the clinic every 2 weeks. After subjects had been dosed for 4 weeks, RAD001 steady state levels were measured pre-dose and at one hour post dose. […] Antibody titers to the 3 influenza vaccine strains as well as to 2 heterologous strains (A/H1N1 strain A/New Jersey/8/76 and A/H3N2 strain A/Victoria/361/11) were measured by standard hemagglutination inhibition assay (Kendal, A P et al. (1982) Concepts and procedures for laboratory-based influenza surveillance. Atlanta: Centers for Disease Control and Prevention B17-B35). Levels of IgG and IgM specific for the A/H1N1/California/07/2009 were measured in serum samples taken before and 4 weeks after influenza vaccination as described previously (Spensieri, F. et al. (2013) Proc. Natl. Acad. Sci. USA 110:14330-14335). Results were expressed as fluorescence intensity.
# [3] = Adverse event and safety assessment of RAD001 in elderly volunteers; format: in vivo, human; conditions: for Incidence of treatment-related AE: Blood cholesterol increased / Incidence of treatment-related AE: Conjunctivitis / Incidence of treatment-related AE: Diarrhea / Incidence of treatment-related AE: Dry mouth / Incidence of treatment-related AE: Dyspepsia / Incidence of treatment-related AE: Erythema / Incidence of treatment-related AE: Fatigue / Incidence of treatment-related AE: Headache / Incidence of treatment-related AE: Insomnia / Incidence of treatment-related AE: Limb discomfort / Incidence of treatment-related AE: Low density lipoprotein increased / Incidence of treatment-related AE: Mouth ulceration / Incidence of treatment-related AE: Mucosal inflammation / Incidence of treatment-related AE: Neutropenia / Incidence of treatment-related AE: Oral pain / Incidence of treatment-related AE: Paresthesia oral / Incidence of treatment-related AE: Pruritus / Incidence of treatment-related AE: Stomatitis / Incidence of treatment-related AE: Thrombocytopenia / Incidence of treatment-related AE: Tongue ulceration / Incidence of treatment-related AE: Urinary tract infection / Treatment-related AEs: Patients with AE(s) / Treatment-related AEs: Total AE(s): N = 53
# Protocol: Adverse event assessment and blood collection for hematologic and biochemical safety assessments were performed during study visits. Adverse event information was also collected in diaries that subjects filled out at home during the 6 weeks they were on study drug. Data on all adverse events were collected from the time of informed consent until 30 days after the last study visit. Events were classified by the investigators as mild, moderate or severe.
# PD-1 = assay: Immunophenotyping of PBMC (FACS); format: in vivo, human; conditions: for decrease in PD-1 positive CD4 T cells compared to placebo / decrease in PD-1 positive CD8 T cells compared to placebo: adjusted for baseline
# [4] = cited from earlier work
# [5] = RAD001 levels in blood (trough)
# P70 S6K = assay: Percent inhibition of P70 S6K activity in HeLa cells in vitro; conditions: concentrations from 30 pM to 4 nM
smiles,measurement,setting,value
"CO[C@H]1C[C@@H]2CC[C@@H](C)[C@@](O)(O2)C(=O)C(=O)N2CCCC[C@H]2C(=O)O[C@H]([C@H](C)C[C@@H]2CC[C@@H](OCCO)[C@H](OC)C2)CC(=O)[C@H](C)/C=C(\C)[C@@H](O)[C@@H](OC)C(=O)[C@H](C)C[C@H](C)/C=C/C=C/C=C/1C [RAD001, (1R,9S,12S,15R,16E,18R,19R,21R,23 S,24E,26E,28E,30S,32S,35R)-1,18-dihydroxy-12-{(1R)-2-[(1 S,3R,4R)-4-(2-hydroxyethoxy)-3-methoxycyclohexyl]-1-methylethyl}-19,30-dimethoxy-15,17,21,23,29,35-hexamethyl-11,36-dioxa-4-aza-tricyclo[30.3.1.04,9]hexatriaconta-16,24,26,28-tetraene-2,3,10,14,20-pentaone]","increase in seroconversion rate, H3N2 heterologous strain",[1]; 5 and 20 mg weekly dosing cohorts,statistically significant
same,Percentage of subjects who seroconvert to heterologous strain A/H3N2 A/Victoria/361/11,[1]; RAD001 5 mg weekly,39%*
same,Percentage of subjects who seroconvert to heterologous strain A/H3N2 A/Victoria/361/11,[1]; RAD001 20 mg weekly,40% *
same,"H3N2 seroconversion rate, heterologous strain","[1]; pooled RAD001 cohorts, p=0.007 vs placebo",39%
same,post-vaccination anti-influenza IgM and IgG levels,[2],No significant difference; also recorded: did not differ
same,Incidence of treatment-related AE: Blood cholesterol increased,[3]; 0.5 mg daily,2 (3.8%) n (%)
same,Incidence of treatment-related AE: Conjunctivitis,[3]; 0.5 mg daily,0 n (%)
same,Incidence of treatment-related AE: Diarrhea,[3]; 0.5 mg daily,1 (1.9%) n (%)
same,Incidence of treatment-related AE: Dry mouth,[3]; 0.5 mg daily,0 n (%)
same,Incidence of treatment-related AE: Dyspepsia,[3]; 0.5 mg daily,0 n (%)
same,Incidence of treatment-related AE: Erythema,[3]; 0.5 mg daily,0 n (%)
same,Incidence of treatment-related AE: Fatigue,[3]; 0.5 mg daily,0 n (%)
same,Incidence of treatment-related AE: Headache,[3]; 0.5 mg daily,0 n (%)
same,Incidence of treatment-related AE: Insomnia,[3]; 0.5 mg daily,1 (1.9%) n (%)
same,Incidence of treatment-related AE: Limb discomfort,[3]; 0.5 mg daily,0 n (%)
same,Incidence of treatment-related AE: Low density lipoprotein increased,[3]; 0.5 mg daily,2 (3.8%) n (%)
same,Incidence of treatment-related AE: Mouth ulceration,[3]; 0.5 mg daily,6 (11.3%) n (%)
same,Incidence of treatment-related AE: Mucosal inflammation,[3]; 0.5 mg daily,0 n (%)
same,Incidence of treatment-related AE: Neutropenia,[3]; 0.5 mg daily,0 n (%)
same,Incidence of treatment-related AE: Oral pain,[3]; 0.5 mg daily,0 n (%)
same,Incidence of treatment-related AE: Paresthesia oral,[3]; 0.5 mg daily,2 (3.8%) n (%)
same,Incidence of treatment-related AE: Pruritus,[3]; 0.5 mg daily,0 n (%)
same,Incidence of treatment-related AE: Stomatitis,[3]; 0.5 mg daily,0 n (%)
same,Incidence of treatment-related AE: Thrombocytopenia,[3]; 0.5 mg daily,0 n (%)
same,Incidence of treatment-related AE: Tongue ulceration,[3]; 0.5 mg daily,3 (5.7%) n (%)
same,Incidence of treatment-related AE: Urinary tract infection,[3]; 0.5 mg daily,0 n (%)
same,Treatment-related AEs: Patients with AE(s),[3]; 0.5 mg daily,22 (41.5%) n (%)
same,Treatment-related AEs: Total AE(s),[3]; 0.5 mg daily,35
same,Incidence of treatment-related AE: Blood cholesterol increased,[3]; 5 mg weekly,2 (3.8%) n (%)
same,Incidence of treatment-related AE: Conjunctivitis,[3]; 5 mg weekly,2 (3.8%) n (%)
same,Incidence of treatment-related AE: Diarrhea,[3]; 5 mg weekly,4 (7.5%) n (%)
same,Incidence of treatment-related AE: Dry mouth,[3]; 5 mg weekly,0 n (%)
same,Incidence of treatment-related AE: Dyspepsia,[3]; 5 mg weekly,3 (5.7%) n (%)
same,Incidence of treatment-related AE: Erythema,[3]; 5 mg weekly,2 (3.8%) n (%)
same,Incidence of treatment-related AE: Fatigue,[3]; 5 mg weekly,2 (3.8%) n (%)
same,Incidence of treatment-related AE: Headache,[3]; 5 mg weekly,2 (3.8%) n (%)
same,Incidence of treatment-related AE: Insomnia,[3]; 5 mg weekly,2 (3.8%) n (%)
same,Incidence of treatment-related AE: Limb discomfort,[3]; 5 mg weekly,2 (3.8%) n (%)
same,Incidence of treatment-related AE: Low density lipoprotein increased,[3]; 5 mg weekly,1 (1.9%) n (%)
same,Incidence of treatment-related AE: Mouth ulceration,[3]; 5 mg weekly,2 (3.8%) n (%)
same,Incidence of treatment-related AE: Mucosal inflammation,[3]; 5 mg weekly,0 n (%)
same,Incidence of treatment-related AE: Neutropenia,[3]; 5 mg weekly,0 n (%)
same,Incidence of treatment-related AE: Oral pain,[3]; 5 mg weekly,2 (3.8%) n (%)
same,Incidence of treatment-related AE: Paresthesia oral,[3]; 5 mg weekly,0 n (%)
same,Incidence of treatment-related AE: Pruritus,[3]; 5 mg weekly,2 (3.8%) n (%)
same,Incidence of treatment-related AE: Stomatitis,[3]; 5 mg weekly,0 n (%)
same,Incidence of treatment-related AE: Thrombocytopenia,[3]; 5 mg weekly,0 n (%)
same,Incidence of treatment-related AE: Tongue ulceration,[3]; 5 mg weekly,1 (1.9%) n (%)
same,Incidence of treatment-related AE: Urinary tract infection,[3]; 5 mg weekly,0 n (%)
same,Treatment-related AEs: Patients with AE(s),[3]; 5 mg weekly,20 (37.7%) n (%)
same,Treatment-related AEs: Total AE(s),[3]; 5 mg weekly,46
same,Incidence of treatment-related AE: Blood cholesterol increased,[3]; 20 mg weekly,2 (3.8%) n (%)
same,Incidence of treatment-related AE: Conjunctivitis,[3]; 20 mg weekly,0 n (%)
same,Incidence of treatment-related AE: Diarrhea,[3]; 20 mg weekly,1 (1.9%) n (%)
same,Incidence of treatment-related AE: Dry mouth,[3]; 20 mg weekly,2 (3.8%) n (%)
same,Incidence of treatment-related AE: Dyspepsia,[3]; 20 mg weekly,2 (3.8%) n (%)
same,Incidence of treatment-related AE: Erythema,[3]; 20 mg weekly,0 n (%)
same,Incidence of treatment-related AE: Fatigue,[3]; 20 mg weekly,4 (7.5%) n (%)
same,Incidence of treatment-related AE: Headache,[3]; 20 mg weekly,9 (17.0%) n (%)
same,Incidence of treatment-related AE: Insomnia,[3]; 20 mg weekly,1 (1.9%) n (%)
same,Incidence of treatment-related AE: Limb discomfort,[3]; 20 mg weekly,0 n (%)
same,Incidence of treatment-related AE: Low density lipoprotein increased,[3]; 20 mg weekly,2 (3.8%) n (%)
same,Incidence of treatment-related AE: Mouth ulceration,[3]; 20 mg weekly,9 (17.0%) n (%)
same,Incidence of treatment-related AE: Mucosal inflammation,[3]; 20 mg weekly,2 (3.8%) n (%)
same,Incidence of treatment-related AE: Neutropenia,[3]; 20 mg weekly,3 (5.7%) n (%)
same,Incidence of treatment-related AE: Oral pain,[3]; 20 mg weekly,1 (1.9%) n (%)
same,Incidence of treatment-related AE: Paresthesia oral,[3]; 20 mg weekly,0 n (%)
same,Incidence of treatment-related AE: Pruritus,[3]; 20 mg weekly,1 (1.9%) n (%)
same,Incidence of treatment-related AE: Stomatitis,[3]; 20 mg weekly,2 (3.8%) n (%)
same,Incidence of treatment-related AE: Thrombocytopenia,[3]; 20 mg weekly,2 (3.8%) n (%)
same,Incidence of treatment-related AE: Tongue ulceration,[3]; 20 mg weekly,0 n (%)
same,Incidence of treatment-related AE: Urinary tract infection,[3]; 20 mg weekly,2 (3.8%) n (%)
same,Treatment-related AEs: Patients with AE(s),[3]; 20 mg weekly,27 (50.9%) n (%)
same,Treatment-related AEs: Total AE(s),[3]; 20 mg weekly,109
same,deaths during the study,"[3]; human, in vivo",No deaths
same,most common related AE,[3]; majority of mild severity,mouth ulcer
same,severe AEs assessed as related,"[3]; mouth ulcers, 20 mg weekly",Only one severe AE
same,tolerability,[3]; particularly 0.5 mg daily and 5 mg weekly,well tolerated
same,"serious adverse events (SAEs), relation to drug","[3]; three subjects, four SAEs",assessed as unrelated to RAD001
same,percentage of PD-1 positive CD4 and CD8 cells compared to placebo cohorts,PD-1; in vivo,lower in the RAD001 as compared to placebo cohorts
same,decrease in PD-1 positive CD4 T cells compared to placebo,"PD-1; week 6, pooled cohort (n=84)",30.2%
same,decrease in PD-1 positive CD8 T cells compared to placebo,"PD-1; week 6, pooled cohort (n=84)",37.4%
same,decrease in PD-1 positive CD4 T cells compared to placebo,"PD-1; week 12, pooled cohort",32.7%
same,decrease in PD-1 positive CD8 T cells compared to placebo,"PD-1; week 12, pooled cohort",41.4%
same,change in PD-1-positive CD8 T cells compared to placebo,"PD-1; week 12, 0.5 mg/Day, 5 mg/Week and 20 mg/Week cohorts",−43.3-−38.5%
same,trough level,[4]; 10 mg daily oncology dosing regimen,approximately 20 ng/ml
same,trough level,[4]; 0.75-1.5 mg bid transplant dosing regimen,approximately 3 ng/ml
same,average trough level,[5]; 0.5 mg daily,0.9 ng/mL
same,average trough level,[5]; 5 mg weekly,below detection limits
same,average trough level,[5]; 20 mg weekly,0.7 ng/mL
same,trough level of study regimens relative to approved regimens,[5]; in vivo,3-20 fold lower
same,effect on P70 S6K activity in cell lines,P70 S6K,partially inhibited P70 S6K activity
